The assay addresses T1, BTK(C481S)-GFP (Homo sapiens, UniProt Q06187+Q96SW2, C481S).
T1 construct: CHYSEL (cis-acting hydrolase element, 2A) remnant after GFP; mCherry is split off as a separate protein (C); expressed in transfected cells; host or cells: TMD8 cells, lentiviral transduction with pLenti6-BTK(C481S)-GFP-CHYSEL-mCherry
Briefly: BTK(C481S)-GFP protein abundance flow cytometry assay in TMD8 cells. It counts as cell-based. The settings on record: TMD8 cells expressing BTK(C481S)-GFP; for DC50: GFP signal by flow cytometry; for BTK (C481S) Amax: % protein remaining at maximum degradation. How it is done: Compounds of the invention were tested in the following cellular assays. The terms in Table 2 are defined as follows: DC50 refers to the concentration at which 50% maximal degradation was observed; deg Amax is the extent of degradation and the value refers to the % protein remaining at the concentration at which maximum degradation is seen; ProI GI50 refers to the proliferation data and defines the concentration at which 50% growth inhibition was observed compared to the vehicle treated control at the end of the incubation time. TMD8 cells are BTK dependent and OCI-LY3 cells are BTK independent.
Btk(C481S)-GFP Protein Abundance Flow Cytometry Assay in TMD8 Cells:
Degradation of BTK(C481S) was measured in TMD8 cells expressing BTK(C481S)-GFP and mCherry from a stably integrated second generation bicistronic BTK(C481S)-GFP-CHYSEL-mCherry construct. Reduction of the […] measured by flow cytometry served as readout for BTK(C481S) degradation after degrader treatment.
Cloning of the pLenti6-BTK(C481)-GFP-CHYSEL-mCherry Sensor Vectors
The BTK(C481 S) protein abundance sensor is based on a second generation bicistronic construct, where the 2 reading frames BTK(C481S) and mCherry control are separated by a cis-acting hydrolase element (see: Lo et al., 2015 Cell Reports 13, 2634), replacing the Ires from the first generation vector described before.
The bicistronic BTK(C481S)-GFP-CHYSEL-mCherry construct is based on a pLenti6-DEST vector backbone where a GFP-CHYSEL-mCherry cassette was synthesized and inserted downstream of the DEST cassette by Gibson assembly resulting in the new gateway compatible vector pLenti6-DEST-GFP-CHYSEL-mCherry to allow Gateway cloning with pENTR221-BTK(C48S)(STOP-Leu) to obtain the final sensor construct pLenti6-BTK(C481S)-GFP-CHYSEL-mCherry. The pENTR221-BTK(C481S)(STOP-Leu) was generated by mutating wild-type BTK to BTK(C481S) with a mutagenesis reaction on pENTR221-BTK (STOP-Leu) with the following primers (BTK C481S Quikchange fw, gagtacatggccaatggctCcctcctgaactacctgagg (SEQ ID NO: 7); BTK C481S Quikchange REVC, cctcaggtagttcaggaggGagccattggccatgtactc (SEQ ID NO: 8)) using the QuikChange Lightning mutagenesis kit (Agilent Technologies #210518) performed according to the manufacturer's manual, resulting in pENTR221-BTK(C481S)(STOP-Leu).
Sequence of the synthesized construct (Xho1 sites are shown in bold, mCherry-ORF is shown in small letters):
Engineering of Stably Expressing TMD8 BTK(C481 S-GFP-CHYSEL-mCherry Sensor Cells
TMD8 BTK(C481S)-GFP-CHYSEL-mCherry sensor cells were generated by lentiviral vector transduction using the pLenti6-BTK(C4818)-GFP-CHYSEL-mCherry sensor construct described before. Lentiviral particles were produced in HEK293FT cells (Invitrogen R70007) by co-transfection of 500 ng pLenti6-BTK-GFP-Ires-RFP or pLenti6-IKZF3-GFP-Ires-RFP, 500 ng delta8.71 and 200 ng pVSVG diluted in 100 μl OptiMEM serum free medium (Invitrogen #11058-021) that was mixed after 5 min preincubation with 3 μl of Lipofectamine2000 (Invitrogen #11668-019) in 97 μl OptiMEM serum free medium. The mix was incubated for another 20 min at RT and then added to 1 ml of a freshly prepared suspension of HEK293FT cells in a well of a 6-well plate (concentration 1.2×10^6 cells/ml). 1 day after transfection, the medium was replaced with 1.5 ml of complete growth medium (DMEM high Glucose+10% FCS+1% L-Glutamine+1% NEAA+1% NaPyr.). 48 h post transfection supernatant containing viral transducing particles was collected and frozen at −80° C.
Two days before transduction with viral particles 1×10^5 HEK293A cells (Invitrogen R7057) were seeded in 2 ml growth medium in a well of a 6-well plate. Infection was performed with 90 μl of collected supernatant containing viral transducing particles in 1 ml medium including 8 μg/ml polybrene. 24 h post infection, stably transfected cells were selected with blasticidin at a concentration of 8 μg/ml.

T1 sequence (Q06187 whole entry C481S): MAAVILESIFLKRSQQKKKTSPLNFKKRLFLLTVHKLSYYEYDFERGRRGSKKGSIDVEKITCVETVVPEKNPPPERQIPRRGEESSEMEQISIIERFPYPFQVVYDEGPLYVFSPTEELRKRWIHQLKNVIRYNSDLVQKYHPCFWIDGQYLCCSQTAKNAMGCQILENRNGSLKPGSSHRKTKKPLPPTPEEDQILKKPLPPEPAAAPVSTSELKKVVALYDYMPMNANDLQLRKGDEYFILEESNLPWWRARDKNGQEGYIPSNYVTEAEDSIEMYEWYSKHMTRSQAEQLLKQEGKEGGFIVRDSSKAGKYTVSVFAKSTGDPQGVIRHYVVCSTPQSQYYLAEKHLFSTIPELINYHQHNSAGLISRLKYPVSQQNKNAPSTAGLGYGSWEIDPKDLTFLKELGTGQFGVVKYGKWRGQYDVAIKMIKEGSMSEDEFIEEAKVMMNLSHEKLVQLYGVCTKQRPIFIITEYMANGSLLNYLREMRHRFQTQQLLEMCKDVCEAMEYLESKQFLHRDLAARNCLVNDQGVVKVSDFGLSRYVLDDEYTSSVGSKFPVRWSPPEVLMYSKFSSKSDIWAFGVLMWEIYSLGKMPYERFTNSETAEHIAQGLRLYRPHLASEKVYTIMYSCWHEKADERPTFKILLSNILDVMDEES
T1 sequence (Q96SW2 whole entry): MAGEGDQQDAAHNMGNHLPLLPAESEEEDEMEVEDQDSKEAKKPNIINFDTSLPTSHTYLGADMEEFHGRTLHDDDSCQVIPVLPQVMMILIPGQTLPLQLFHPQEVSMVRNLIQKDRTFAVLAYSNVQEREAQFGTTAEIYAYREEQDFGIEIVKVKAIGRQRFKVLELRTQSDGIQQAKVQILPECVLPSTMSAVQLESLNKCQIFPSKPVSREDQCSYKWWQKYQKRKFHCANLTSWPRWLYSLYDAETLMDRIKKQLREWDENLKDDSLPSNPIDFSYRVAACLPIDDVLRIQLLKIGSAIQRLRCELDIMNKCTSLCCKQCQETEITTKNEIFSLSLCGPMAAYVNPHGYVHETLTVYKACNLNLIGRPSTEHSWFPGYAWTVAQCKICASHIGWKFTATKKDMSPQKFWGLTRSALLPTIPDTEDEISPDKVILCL
T1 sequence (Q16531 whole entry partner): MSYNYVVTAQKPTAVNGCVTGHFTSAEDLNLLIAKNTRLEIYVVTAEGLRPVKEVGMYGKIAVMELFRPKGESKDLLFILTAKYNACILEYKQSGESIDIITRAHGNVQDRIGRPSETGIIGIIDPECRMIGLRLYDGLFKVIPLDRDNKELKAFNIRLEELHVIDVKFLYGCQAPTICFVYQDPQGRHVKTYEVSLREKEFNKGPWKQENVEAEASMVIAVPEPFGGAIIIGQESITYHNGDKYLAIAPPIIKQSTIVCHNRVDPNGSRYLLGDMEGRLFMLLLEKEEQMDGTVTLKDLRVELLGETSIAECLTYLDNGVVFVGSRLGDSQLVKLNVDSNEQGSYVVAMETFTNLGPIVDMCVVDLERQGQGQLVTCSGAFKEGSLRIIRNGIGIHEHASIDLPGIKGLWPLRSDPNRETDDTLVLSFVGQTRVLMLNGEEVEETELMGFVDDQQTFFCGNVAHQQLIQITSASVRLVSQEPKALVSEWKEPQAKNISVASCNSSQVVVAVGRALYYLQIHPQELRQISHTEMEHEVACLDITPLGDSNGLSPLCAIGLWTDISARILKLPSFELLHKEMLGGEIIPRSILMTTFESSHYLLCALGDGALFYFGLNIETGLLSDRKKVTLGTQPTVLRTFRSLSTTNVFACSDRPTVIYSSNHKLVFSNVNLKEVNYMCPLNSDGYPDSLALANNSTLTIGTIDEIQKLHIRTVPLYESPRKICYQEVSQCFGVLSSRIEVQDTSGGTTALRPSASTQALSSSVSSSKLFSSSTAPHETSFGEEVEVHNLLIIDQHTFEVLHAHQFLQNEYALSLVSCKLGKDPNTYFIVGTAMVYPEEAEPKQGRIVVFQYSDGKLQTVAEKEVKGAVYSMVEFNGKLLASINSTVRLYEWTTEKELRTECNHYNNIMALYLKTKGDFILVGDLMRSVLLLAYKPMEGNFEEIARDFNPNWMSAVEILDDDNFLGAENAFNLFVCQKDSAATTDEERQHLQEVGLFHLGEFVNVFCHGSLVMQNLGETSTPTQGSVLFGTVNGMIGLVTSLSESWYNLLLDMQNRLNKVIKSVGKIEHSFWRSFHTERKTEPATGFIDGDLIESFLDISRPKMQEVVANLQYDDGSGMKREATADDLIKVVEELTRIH

For `Cc1ccc(C(=O)N(C)CCCCCNCc2ccc(-c3cc4c(-c5cc(F)cc(NC(=O)c6ccc(C(C)(C)O)cc6F)c5C)ncnc4[nH]3)cc2)cc1N1CCC(=O)NC1=O` [Compound 30, 3-(2,4-Dioxotetrahydropyrimidin-1(2H)-yl)-N-(5-((4-(4-(5-fluoro-3-(2-fluoro-4-(2-hydroxypropan-2-yl)benzamido)-2-methylphenyl)-7H-pyrrolo[2,3-d]pyrimidin-6-yl)benzyl)amino)pentyl)-N,4-dimethylbenzamide], the DC50 stood at 8.18 nM and the “BTK (C481S) Amax” value is listed as 3.1%.

Regarding `COc1ccc(C(=O)N2CCC3(CCN(CCc4ccc(-c5cc6c(-c7cc(F)cc(NC(=O)c8ccc(C(C)(C)O)cc8F)c7C)ncnc6[nH]5)cc4)CC3)CC2)cc1N1CCC(=O)NC1=O` [Compound 31, N-(3-(6-(4-(2-(9-(3-(2,4-Dioxotetrahydropyrimidin-1(2H)-yl)-4-methoxybenzoyl)-3,9-diazaspiro[5.5]undecan-3-yl)ethyl)phenyl)-7H-pyrrolo[2,3-d]pyrimidin-4-yl)-5-fluoro-2-methylphenyl)-2-fluoro-4-(2-hydroxypropan-2-yl)benzamide], the DC50 turned out to be 1.21 nM and the “BTK (C481S) Amax” value stood at 3.0%.

`COc1ccc(C(=O)N2CCC(OC3CCN(CCc4ccc(-c5cc6c(-c7cc(F)cc(NC(=O)c8ccc(C(C)(C)O)cc8F)c7C)ncnc6[nH]5)cc4)CC3)CC2)cc1N1CCC(=O)NC1=O` [Compound 34, N-(3-(6-(4-(2-(4-((1-(3-(2,4-Dioxotetrahydropyrimidin-1(2H)-yl)-4-methoxybenzoyl)piperidin-4-yl)oxyl)piperidin-1-yl)ethyl)phenyl)-7H-pyrrolo[2,3-d]pyrimidin-4-yl)-5-fluoro-2-methylphenyl)-2-fluoro-4-(2-hydroxypropan-2-yl)benzamide]: the DC50 is 1.94 nM and the “BTK (C481S) Amax” value worked out at 1.6%.

With `COc1ccc(C(=O)N2CCN(CCCCNCc3ccc(-c4cc5c(-c6cc(F)cc(NC(=O)c7ccc(C(C)(C)O)cc7F)c6C)ncnc5[nH]4)cc3)CC2)cc1N1CCC(=O)NC1=O` [Compound 40, N-(3-(6-(4-(((4-(4-(3-(2,4-dioxotetrahydropyrimidin-1(2H)-yl)-4-methoxybenzoyl)piperazin-1-yl)butyl)amino)methyl)phenyl)-7H-pyrrolo[2,3-d]pyrimidin-4-yl)-5-fluoro-2-methylphenyl)-2-fluoro-4-(2-hydroxypropan-2-yl)benzamide], the DC50 was determined as 3.03 nM and the “BTK (C481S) Amax” value amounted to 2.9%.

Take `Cc1c(NC(=O)c2ccc(C(C)(C)O)cc2F)cc(F)cc1-c1ncnc2[nH]c(-c3ccc(CCN4CCC5(CC4)CCN(C(=O)c4ccc(F)c(N6CCC(=O)NC6=O)c4)CC5)cc3)cc12` [Compound 47, N-(3-(6-(4-(2-(9-(3-(2,4-dioxotetrahydropyrimidin-1(2H)-yl)-4-fluorobenzoyl)-3,9-diazaspiro[5.5]undecan-3-yl)ethyl)phenyl)-7H-pyrrolo[2,3-d]pyrimidin-4-yl)-5-fluoro-2-methylphenyl)-2-fluoro-4-(2-hydroxypropan-2-yl)benzamide]: the DC50 came out at 0.72 nM and the “BTK (C481S) Amax” value amounted to 2.4%.

For the origin of these results see patent publication US12441733B2, “Substituted 2,4-dioxotetrahydropyrimidines as intermediates in the synthesis of bruton's tyrosine kinase inhibitors” (Novartis AG, priority 2018, dated 2025).
